Series [1] can be described thus: In-vivo oral rat pharmacokinetics (Example 15). To be noted: male Sprague-Dawley rats, dose level 10 mg/kg, 0.5% MC, plasma, mean. The method, then:
Understanding the pharmacokinetics in species typically employed in preclinical animal testing is an essential component of drug discovery. […] Procedure: Six (6) male Sprague-Dawley rats were used. Fasting was conducted at least 16 hours prior to dose administration. Food was returned at approximately 4 hours post dose. The animals were placed into 2 groups of 3 animals per group. The oral (PO) formulation for Groups 1 & 2 were prepared on the day of dosing at a target concentration of 0.5 mg/mL in 0.5% Methylcellulose (400 cps) to produce a white, homogeneous suspension. Dosing was performed as outlined in Table 1:
Whole blood samples (0.250 mL; K2EDTA anticoagulant) were collected from each animal through a jugular vein catheter. Whole blood samples were collected from all animals pre-dose, and at 0.25, 0.5, 1, 2, 4, 8, 16, and 24 hours after dose administration. All blood samples were immediately placed on ice until processing. Whole blood samples were centrifuged at 2200×g for 10 minutes in a refrigerated centrifuge (5±3° C.) to isolate plasma. The plasma samples were transferred to individual polypropylene vials and immediately placed on dry ice before storage at nominally −20±5° C. The plasma samples sometime later were then thawed and extracted and analyzed by high pressure liquid chromatography (HPLC) coupled to Mass Spectrometry (MS) (Table 2). Pharmacokinetic parameters (Table 3) were estimated using WinNonlin® pharmacokinetic software (Version No. 5.2.1) using a non-compartmental approach consistent with the PO route of administration.

Series [2] has as its system STZ-induced diabetic rats. Put plainly: STZ-induced diabetic rat model, tactile allodynia (Example 18). It is filed as in vivo, Wistar rats. The method, then:
(§1) Male Wistar rats (300-350 g) at the beginning of the experiment were used. A single dose (65 mg/kg, i.p.) of Streptozotocin (STZ) with 230 mg/kg (i.p) of nicotinamide were used for induction of diabetes in rats. The STZ was freshly dissolved in citrate buffer. Age matched control rats received the equal volume of the citrate buffer only. Forty days after injection of either STZ or citrate buffer, the rats were tested for diabetes mellitus (DM) using a drop of blood from the tail vein. The estimation of blood glucose level was made using OneTouch Select® Glucometer (LifeScan, Inc., USA). Rats with plasma glucose level>8 mmol/1 (145 mg/dl) were considered as diabetic. Following the diagnosis of DM, age matched healthy control and STZ-induced diabetic rats were divided randomly into four groups each containing six rats. Glucose level was estimated on weekly basis during the experiment.
(§2) Experimental design and drug treatment: Six weeks after the diabetic induction age matched healthy control and STZ-induced diabetic rats were divided randomly into four groups each containing six rats: naïve rats, vehicle (0.5% methylcellulose) treated DM group, 70 mg/kg (in 0.5% methylcellulose) Compound 5-treated DM group, 140 mg/kg (in 0.5% methylcellulose) Compound 5-treated DM group.
Behavioral testing: Tactile allodynia. […] The paw withdrawal thresholds were determined. […] The psychophysical 50% threshold was then calculated.
Data analysis: The results are presented as mean±SEM. In chronic pain experiment, four rats were excluded from the statistical analysis because the paw withdrawal threshold was >8 g (criterion taken from the study. Paw withdrawal threshold data were subjected to analysis of variance (ANOVA, General Linear Model procedure) with Dunnett's post hoc test was applied for between-group pair wise comparisons. Effects of Compound 5 on immunohistochemistry parameters were analyzed by one-way ANOVA (factors: Compound 5 treatment) followed by the Dunnett's test. Data were analyzed using SAS-STAT (SAS v.9.4, SAS Institute Inc., Cary, NC, USA). Data were considered significant at P<0.05.

Series [3] has as its system STZ-induced diabetic rats. Put plainly: STZ-induced diabetic rat model, blood glucose concentration and HbA1c (Example 18). It is filed as in vivo, Wistar rats. The method, then:
as §1, §2

The next series deals with caspase-3. Put plainly: Caspase-3 immunohistochemistry (optical density) in spinal cord and sciatic nerve of STZ diabetic rats (Example 18). It is filed as in vivo, Wistar rats. The method, then: Sections from the biopsy specimens (brain and spinal tissue) were formalin-fixed and paraffin-embedded. For IHC examination, slides from the spinal cord and sciatic nervous were evaluated for caspase-3 (cas-3). Serial 3-5-μm thick sections were cut from paraffin embedded tissue blocks. For subsequent IHC staining glass slices were exposed to hot unmasking fluidized citrate buffer pH 6.0 for 15-18 min. After cooling, the glass with the slice was transferred into phosphate-buffered saline (PBS) pH 7.4. The sections were deparaffinized and then rehydrated in alcohol to tris-buffered saline. Endogenous peroxidase activity was blocked using 3% hydrogen peroxide followed by a protein block with 5% goat serum.
Affinity purified monoclonal IgG1, Caspase-3 p11 antibodies (sc-271759; Santa Cruz BioTechnology Inc., Dallas, TX, USA) were used as the primary antibody and applied at a 1:50 dilution 100 μl/glass for 30 min at room temperature. […]
Immunohistochemistry: Sections from the biopsy specimens were formalin-fixed and paraffin-embedded. For immunohistochemistry (IHC) examination, slides from the spinal cord and sciatic nervous were evaluated for caspase-3. […] (4 per group) and three sections from each animal were used for quantitative immunohistochemistry (12 measuring per each group). […]

A short description of a further series: Dissociation constant. It is filed as physicochemical.
Series [4] can be described thus: Solubility testing (Example 27). It counts as physicochemical. To be noted: for solubility in water: as the free acid.

The values that follow come from patent US12589090B2, “Compounds and methods for the treatment of degenerative disorders” (Aquilus Pharmaceuticals, Inc., priority 2019, dated 2026).

In series [1], `Cc1ccc(C#Cc2ccc(S(=O)(=O)N[C@H](Cc3c[nH]c4ccccc34)C(=O)O)s2)cc1` [Compound 5, (R)-3-(1H-Indol-3-yl)-2-(5-p-tolylethynyl-thiophene-2-sulfonylamino)-propionic acid] had an area under the curve AUC(0-inf) of 5.15 µg·h/mL, an AUC(0-t) of 5.12 µg·h/mL, a Cmax of 1.58 µg/mL and a half-life of 1.28 h. Further, the “tactile allodynia (paw withdrawal threshold), post hoc analysis” value in series [2] (70 mg/kg, 14 days treatment, p<0.05 vs. vehicle) is listed as “confirmed the effect”. For the same compound, the “tactile allodynia (paw withdrawal threshold)” value in series [2] (140 mg/kg, 14 days treatment) is “tendency to the analgesic effect”. Also, in series [2] (after 14 days of treatment), the “threshold of the nociceptive response (tactile allodynia)” value was “significantly decreased”. Moreover, the “glycosylated hemoglobin (HbA1c) level” value in series [3] (STZ diabetic rats treated during 2 weeks, vs. untreated DM rats) is “not significantly changed”. Besides, in series [3] (STZ diabetic rats, 70 or 140 mg/kg), the blood glucose concentration result was “no significant effects”. Besides, in the series with caspase-3 (both doses (70 and 140 mg/kg), vs. vehicle-treated DM group), the “expression of caspase-3 in sciatic nerve” value is recorded as “significant reduction”. The “caspase-3 in spinal cord” value with caspase-3 (vs. vehicle group) is “statistically significant change”. In “Dissociation constant”, the dissociation constant entry was “around 3.4”. For the same compound, in series [4], the “solubility in DMSO, acetone and methanol” value is given as “soluble”; the solubility in water entry is “poorly soluble”.

For `[2H]c1[nH]c2c([2H])c([2H])c([2H])c([2H])c2c1C[C@@H](NS(=O)(=O)c1ccc(C#Cc2ccc(C)cc2)s1)C(=O)O` [Compound 82], the dissociation constant entry in the series “Dissociation constant” is on record as “around 3.4”. In addition, in series [4], the “solubility in DMSO, acetone and methanol” value was “soluble”; the solubility in water result was “poorly soluble”.

By AUC(0-inf) is commonly meant the area under the concentration-time curve extrapolated to infinity. High values mean more exposure, low ones less exposure. For orientation: AUC(0-t) means the area under the concentration-time curve up to a stated or last time point. For orientation: Cmax means the highest concentration seen after dosing. Usually half-life stands for the time in which the quantity being followed falls by half. Read a high half-life as slow loss.
